Source: US12577216B2, “Triazine benzoate compound and application thereof” (SHENYANG SINOCHEM AGROCHEMICALS R&D CO., LTD., priority 2020, dated 2026)

Legend:
[1] = test system: green bristlegrass; assay: Determination of herbicidal activity, post-emergence stem and leaf spray, green bristlegrass; format: in vivo; conditions: for Herbicidal activity for Green Bristlegrass, control effect %: Table 5 parallel comparison
Procedure: (§1) Seeds of broadleaf weeds (zinnia and piemarker) or grassy weeds (green bristlegrass and barnyard grass) were respectively sown in a paper cup having a diameter of 7 cm and containing nutrient soil; after sowing, the seeds were covered with 1 cm of soil; the soil was pressed and watered, and then the seeds were cultivated in a greenhouse according to a conventional method; and stems and leaves were sprayed after 2-3 leaf stage of the weeds.
(§2) After the original medicinal acetone was dissolved, the test requires to use 1‰ of Tween 80 to stand in running water to prepare the solution to be tested with a required concentration. According to the design dose of the test, spray treatment was carried out on a track-type crop sprayer (designed and produced by British Engineer Research Ltd.) (spray pressure is 1.95 kg/cm^2, spray volume is 500 L/hm^2 and track speed is 1.48 km/h). The test was repeated for three times. The test material was treated and then placed in an operation hall. The medicinal liquid was naturally dried in the shade, and then was placed in a greenhouse and managed according to the conventional method. The response of the weeds to the drug was observed and recorded. After treatment, the control effects of the test drug on the weeds were visually inspected regularly, expressed by 0-100%. “0” represents no control effect and “100%” represents complete killing.

[2] = test system: piemarker; assay: Determination of herbicidal activity, post-emergence stem and leaf spray, piemarker; format: in vivo
Procedure: as §1, §2

[3] = test system: Chenopodium album L.; conditions: postemergence application, doses of 7.81 and 3.91 g/ha; cited from earlier work
[4] = test system: Amaranthus retroflexus; conditions: postemergence application, doses of 7.81 and 3.91 g/ha; cited from earlier work
[5] = test system: Setaria faberi; conditions: postemergence application, doses of 7.81 and 3.91 g/ha; cited from earlier work
[6] = test system: zinnia; assay: Determination of herbicidal activity, post-emergence stem and leaf spray, zinnia; format: in vivo
Procedure: as §1, §2

[7] = test system: Commelina benghalensis Linn.; conditions: postemergence application, doses of 7.81 and 3.91 g/ha; cited from earlier work
[8] = test system: barnyard grass; assay: Determination of herbicidal activity, post-emergence stem and leaf spray, barnyard grass; format: in vivo; conditions: for Herbicidal activity for Barnyard Grass, control effect %: Table 6 parallel comparison
Procedure: as §1, §2

[9] = Table 2, 9.375 g a.i./hm^2, after emergence
[10] = Table 2, 37.5 g a.i./hm^2, after emergence
[11] = 9.375 g a.i./hm^2, after emergence
[12] = 37.5 g a.i./hm^2, after emergence

C=CCOC(=O)c1cc(-n2c(=O)n(C)c(=S)n(C)c2=O)c(F)cc1Cl [KC1, reference compound]
Green Bristlegrass, control effect % [1, 9]: 10% | Green Bristlegrass, control effect % [1, 10]: 25% | Herbicidal activity for Green Bristlegrass, control effect % [1, 11]: 10% | Herbicidal activity for Green Bristlegrass, control effect % [1, 12]: 25% | Piemarker, control effect % [2, 9]: 55% | Piemarker, control effect % [2, 10]: 100% | Herbicidal activity for Piemarker, control effect % ([2]; Table 4 parallel comparison, 9.375 g a.i./hm^2, after emergence): 55% | control of Chenopodium album L. [3]: effectively control | control of Amaranthus retroflexus [4]: effectively control | control of Setaria faberi [5]: effectively control | Zinnia, control effect % [6, 9]: 50% | Zinnia, control effect % [6, 10]: 60% | Herbicidal activity for Zinnia, control effect % ([6]; Table 3 parallel comparison, 9.375 g a.i./hm^2, after emergence): 50% | control of Commelina benghalensis Linn. [7]: effectively control | Barnyard Grass, control effect % [8, 9]: 0% | Barnyard Grass, control effect % [8, 10]: 25% | Herbicidal activity for Barnyard Grass, control effect % [8, 11]: 0% | Herbicidal activity for Barnyard Grass, control effect % [8, 12]: 25%
